Results published in patent US20150274777A1, “KETOAMIDE IMMUNOPROTEASOME INHIBITORS” (HOFFMANN-LA ROCHE INC., priority 2012, published 2015).
pEC50, pIC50: −log10 of the molar value.

What was measured:
[1] = molecular target: T1, β5c (Homo sapiens, UniProt P20618+P28074); experiment: Cell-Based Proteasome Activity/Selectivity Assay (Ramos cells), substrate (WLA)2Rh110; details: highest concentration tested 20 μM
T1 construct: protease activity associated with the proteasome complex in cultured cells; endogenous in cells; host or cells: Ramos cells
Text: (§1) Cell-Based Proteasome Activity/Selectivity Assay
(§2) The Cell-Based Proteasome subunit activity/selectivity assay was a panel of 5 fluorogenic assays that independently measured the activity of β5c or β5i (chymotrypsin-like activity), β2c/2i (trypsin-like), and β1c or β1i (caspase-like) protease activity associated with the proteasome complex in cultured cells. Specifically, the following substrates were used for respective subunit activities: β1i: (PAL)2Rh110, β1c: (LLE)2 Rh110, β2c/2i: (KQL)2Rh110, β5c: (WLA)2Rh110, β5i: (ANW)2Rh110. The following procedure was followed:
(§3) Cell preparation: Plated 25 μl of Ramos cells (2×10^6/ml in DPBS) into half area plate (PerkinElmer Cat 6005569) to final 5×10^4 cells/well. Added 0.5 μl of 100×4-fold serial diluted test compounds or DMSO to each well. Highest concentration of compound tested was 20 μM, thus compound serial dilution started from […]. Incubated for 30 minutes at 37° C. Then equilibrated at room temperature for 15 minutes. Added 25 μl of 2× reaction mix consisting of 0.025% digitonin, 20 μM of each substrates and 0.5M sucrose in DPBS. Shaked for one minute @ 700 rpm. Incubated for 120 min at room temperature. Then read the plates with an Envision multilabel plate reader (PerkinElmer) with 500 nm excitation/519 nm emission.

[2] = test system: β2c/2i; experiment: Cell-Based Proteasome Activity/Selectivity Assay (Ramos cells), substrate (KQL)2Rh110; details: highest concentration tested 20 μM
Text: as §1, §2, §3

[3] = test system: IP10 level in PBMCs stimulated with CpG Type A; experiment: PBMC IP-10 Assay; type: cell-based; details: CpG Type A 2.5 μM
Protocol: PBMCs were isolated from whole blood as follows: Blood was collected in a sterile environment in heparinized tubes. Blood was diluted with an equal volume PBS/2% FCS and 30 ml of this mixture was added to ACCUSPIN tubes containing 15 ml Histopaque-1077 already centrifuged at 800 g for 30 seconds and warmed up at room temperature. The tubes were then centrifuged at 800 g for 20 minutes at room temperature with no brake. The mononuclear band, just above the polyethylene frit, was removed by Pasteur pipet. These mononuclear cells were washed three times with sterile PBS, counted, and resuspended in RPMI 1640 supplemented with 10% heat inactivated fetal calf serum, 10 mM HEPES, 1 mM sodium pyruvate, penicillin (50 U/ml), streptomycin (50 μg/ml) and glutamine (2 mM) to approximately 1.5×10^6/ml. Approximately 2×10^5 cells/well were plated in 96 well tissue culture plates (BD Falcon 353072), and preincubated 60 mi/37° C. with a titration of compounds, in a final concentration of 1% DMSO. Cells were then stimulated with CpG Type A (Invivogen, Cat #tlrl-2216; ODN 2216) at a final concentration of 2.5 μM. Cells were incubated overnight, and supernatants were removed. PBMC viability of cells remaining in the well was measured with ATPlite luminescence assay (Perkin-Elmer) per the manufacturer's instructions. Luminescence was measured on the Perkin-Elmer Envision, using the luminescence filter. IP10 level was measured with CXCL10/IP10 AlphaLISA kit (Perkin-Elmer) per the manufacturer's instructions, except halving all volumes. Fluorescence was measured on the Envision Multilabel plate reader, using the AlphaScreen standard settings.

[4] = molecular target: T2, β1i (Homo sapiens, UniProt P28065+P40306); experiment: Cell-Based Proteasome Activity/Selectivity Assay (Ramos cells), substrate (PAL)2Rh110; details: highest concentration tested 20 μM
T2 construct: protease activity associated with the proteasome complex in cultured cells; endogenous in cells; host or cells: Ramos cells
Text: as §1, §2, §3

[5] = molecular target: T3, β5i (Homo sapiens, UniProt P20618+P28062); experiment: Cell-Based Proteasome Activity/Selectivity Assay (Ramos cells), substrate (ANW)2Rh110; details: highest concentration tested 20 μM, read-out: Ic50 ramos:ac-(anw)2-r110
T3 construct: protease activity associated with the proteasome complex in cultured cells; endogenous in cells; host or cells: Ramos cells
Text: as §1, §2, §3

[6] = molecular target: T4, β1c (Homo sapiens, UniProt P28072+Q99436); experiment: Cell-Based Proteasome Activity/Selectivity Assay (Ramos cells), substrate (LLE)2 Rh110; details: highest concentration tested 20 μM
T4 construct: protease activity associated with the proteasome complex in cultured cells; endogenous in cells; host or cells: Ramos cells
Text: as §1, §2, §3

| Compound | pIC50 [1] | pIC50 [2] | pIC50 [4] | pIC50 [5] | pIC50 [6] | pEC50 [3] |
| --- | --- | --- | --- | --- | --- | --- |
| CCCCC(NC(=O)[C@H](COC)NC(=O)[C@H](C)NC(=O)c1cc(C)on1)C(=O)C(=O)NCc1ccccc1 (mixture of isomers) [Example 6, 5-Methyl-isoxazole-3-carboxylic acid {(S)-1-[(S)-1-((S)-1-benzylaminooxalyl-pentylcarbamoyl)-2-methoxy-ethylcarbamoyl]-ethyl}-amide] | 5.26 | < 4.70 | 6.02 | 5.98 | < 4.70 | 4.87 |
| CCCC[C@H](NC(=O)[C@H](CC(C)C)NC(=O)[C@@H](NC(=O)CN1CCOCC1)C(C)(C)C)C(=O)C(=O)NCc1ccccc1 [Example 2, (S)-3-{(S)-2-[(S)-3,3-Dimethyl-2-(2-morpholin-4-yl-acetylamino)-butyrylamino]-4-methyl-pentanoylamino}-2-oxo-heptanoic acid benzylamide] | 5.61 | < 4.70 | 6.18 | 5.68 | 5.06 | 4.92 |
| CCCC[C@H](NC(=O)[C@H](Cc1ccc(OC)cc1)NC(=O)[C@H](C)NC(=O)CN1CCOCC1)C(=O)C(=O)NCc1ccccc1 [Example 3, (S)-3-{(S)-3-(4-Methoxy-phenyl)-2-[(S)-2-(2-morpholin-4-yl-acetylamino)-propionylamino]-propionylamino}-2-oxo-heptanoic acid benzylamide] | 5.49 | < 4.70 | 6.25 | 6.40 | < 4.70 | 5.10 |
| CCCC[C@H](NC(=O)[C@H](Cc1c[nH]c2ccccc12)NC(=O)[C@H](C)NC(=O)C1=C(C)c2ccccc2C1)C(=O)C(=O)N[C@@H](C)c1ccccc1 [Example 7] | 5.52 | < 4.70 | 6.15 | 6.99 | 4.88 | 5.40 |
| CCCC[C@H](NC(=O)[C@H](Cc1c[nH]c2ccccc12)NC(=O)[C@H](C)NC(=O)c1ccnn1C)C(=O)C(=O)NCc1ccccc1 [Example 13, 2-Methyl-2H-pyrazole-3-carboxylic acid {(S)-1-[(S)-1-((S)-1-benzylaminooxalyl-pentylcarbamoyl)-2-(1H-indol-3-yl)-ethylcarbamoyl]-ethyl}-amide] | 5.53 | < 4.70 | – | 6.39 | 5.02 | 5.40 |
| CCCC[C@H](NC(=O)[C@H](Cc1ccc(OC)cc1)NC(=O)[C@H](C)NC(=O)CN1CCOCC1)C(=O)C(=O)NC [Example 14, (S)-3-{(S)-3-(4-Methoxy-phenyl)-2-[(S)-2-(2-morpholin-4-yl-acetylamino)-propionylamino]-propionylamino}-2-oxo-heptanoic acid methylamide] | 4.78 | < 4.70 | 6.37 | 6.16 | < 4.70 | 5.29 |
| CCCC[C@H](NC(=O)[C@H](CCS(C)(=O)=O)NC(=O)[C@H](C)NC(=O)C1=C(C)c2ccccc2C1)C(=O)C(=O)NCc1ccccc1 [Example 15, 3-Methyl-1H-indene-2-carboxylic acid {(S)-1-[(S)-1-((S)-1-benzylaminooxalyl-pentylcarbamoyl)-3-methanesulfonyl-propylcarbamoyl]-ethyl}-amide] | 5.45 | < 4.70 | 6.68 | 7.00 | 5.07 | 5.72 |

These reach a higher pIC50 [1]. Values come first.

| pIC50 [1] | pIC50 [2] | pIC50 [4] | pIC50 [5] | pIC50 [6] | Compound | pEC50 [3] |
| --- | --- | --- | --- | --- | --- | --- |
| 6.35 | 4.98 | 6.04 | 6.84 | 5.45 | CCCC[C@H](NC(=O)[C@H](CC(C)C)NC(=O)[C@@H](NC(=O)[C@H](Cc1ccccc1C)NC(C)=O)C(C)(C)C)C(=O)C(=O)NCc1ccccc1 [Example 1, (S)-3-{(S)-2-[(S)-2-((S)-2-Acetylamino-3-o-tolyl-propionylamino)-3,3-dimethyl-butyrylamino]-4-methyl-pentanoylamino}-2-oxo-heptanoic acid benzylamide] | 5.69 |
| 6.12 | < 4.70 | 7.04 | 7.08 | 5.24 | CCCC[C@H](NC(=O)[C@H](Cc1c[nH]c2ccccc12)NC(=O)[C@H](C)NC(=O)c1cc(C)on1)C(=O)C(=O)NCc1ccccc1 [Example 4, 5-Methyl-isoxazole-3-carboxylic acid {(S)-1-[(S)-1-((S)-1-benzylaminooxalyl-pentylcarbamoyl)-2-(1H-indol-3-yl)-ethylcarbamoyl]-ethyl}-amide] | 5.41 |
| 6.25 | < 4.70 | 6.85 | 7.74 | 5.48 | CCCC[C@H](NC(=O)[C@H](Cc1c[nH]c2ccccc12)NC(=O)[C@H](C)NC(=O)C1=C(C)c2ccccc2C1)C(=O)C(=O)NCc1ccccc1 [Example 5, 3-Methyl-1H-indene-2-carboxylic acid {(S)-1-[(S)-1-((S)-1-benzylaminooxalyl-pentylcarbamoyl)-2-(1H-indol-3-yl)-ethylcarbamoyl]-ethyl}-amide] | 5.92 |
| 6.11 | < 4.70 | 6.30 | 7.48 | 4.95 | CCCC[C@H](NC(=O)[C@H](Cc1c[nH]c2ccccc12)NC(=O)[C@H](C)NC(=O)C1=C(C)c2ccccc2C1)C(=O)C(=O)N[C@H](C)c1ccccc1 [Example 8] | 5.75 |
| 6.09 | < 4.70 | 7.47 | 7.59 | < 4.70 | CCCC[C@H](NC(=O)[C@H](Cc1c[nH]c2ccccc12)NC(=O)[C@H](C)NC(=O)OCc1ccccc1)C(=O)C(=O)NCc1ccccc1 [Example 9, {(S)-1-[(S)-1-((S)-1-Benzylaminooxalyl-pentylcarbamoyl)-2-(1H-indol-3-yl)-ethylcarbamoyl]-ethyl}-carbamic acid benzyl ester] | 5.28 |
| 5.72 | < 4.70 | 6.56 | 6.15 | < 4.70 | CCCC[C@H](NC(=O)[C@H](Cc1c[nH]c2ccccc12)NC(=O)[C@H](C)NC(=O)CN1CCOCC1)C(=O)C(=O)NCc1ccccc1 [Example 10, (S)-3-{(S)-3-(1H-Indol-3-yl)-2-[(S)-2-(2-morpholin-4-yl-acetylamino)-propionylamino]-propionylamino}-2-oxo-heptanoic acid benzylamide] | – |
| 6.33 | 5.10 | – | 7.85 | 5.53 | CCCC[C@H](NC(=O)[C@H](Cc1c[nH]c2ccccc12)NC(=O)[C@H](C)NC(=O)C1Cc2ccccc2C1)C(=O)C(=O)NCc1ccccc1 [Example 11, Indan-2-carboxylic acid {(S)-1-[(S)-1-((S)-1-benzylaminooxalyl-pentylcarbamoyl)-2-(1H-indol-3-yl)-ethylcarbamoyl]-ethyl}-amide] | 5.91 |
| 6.42 | < 4.70 | – | 7.44 | 5.26 | CCCC[C@H](NC(=O)[C@H](Cc1c[nH]c2ccccc12)NC(=O)[C@H](C)NC(=O)c1cccc(Cl)c1Cl)C(=O)C(=O)NCc1ccccc1 [Example 12, N-{(S)-1-[(S)-1-((S)-1-Benzylaminooxalyl-pentylcarbamoyl)-2-(1H-indol-3-yl)-ethylcarbamoyl]-ethyl}-2,3-dichloro-benzamide] | 5.58 |
